Results: ChEMBL document CHEMBL1201862, “PubChem BioAssay data set” (2004)
The source made the active and inactive calls.

What was measured:
[1] = target: T1, Sentrin-specific protease 7 (Homo sapiens, UniProt Q9BQF6); format: functional;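 also: Luminescence-based dose-response confirmation of ultra-high-throughput screening hits, measuring inhibition of SENP7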
T1 sequence (Q9BQF6 whole entry): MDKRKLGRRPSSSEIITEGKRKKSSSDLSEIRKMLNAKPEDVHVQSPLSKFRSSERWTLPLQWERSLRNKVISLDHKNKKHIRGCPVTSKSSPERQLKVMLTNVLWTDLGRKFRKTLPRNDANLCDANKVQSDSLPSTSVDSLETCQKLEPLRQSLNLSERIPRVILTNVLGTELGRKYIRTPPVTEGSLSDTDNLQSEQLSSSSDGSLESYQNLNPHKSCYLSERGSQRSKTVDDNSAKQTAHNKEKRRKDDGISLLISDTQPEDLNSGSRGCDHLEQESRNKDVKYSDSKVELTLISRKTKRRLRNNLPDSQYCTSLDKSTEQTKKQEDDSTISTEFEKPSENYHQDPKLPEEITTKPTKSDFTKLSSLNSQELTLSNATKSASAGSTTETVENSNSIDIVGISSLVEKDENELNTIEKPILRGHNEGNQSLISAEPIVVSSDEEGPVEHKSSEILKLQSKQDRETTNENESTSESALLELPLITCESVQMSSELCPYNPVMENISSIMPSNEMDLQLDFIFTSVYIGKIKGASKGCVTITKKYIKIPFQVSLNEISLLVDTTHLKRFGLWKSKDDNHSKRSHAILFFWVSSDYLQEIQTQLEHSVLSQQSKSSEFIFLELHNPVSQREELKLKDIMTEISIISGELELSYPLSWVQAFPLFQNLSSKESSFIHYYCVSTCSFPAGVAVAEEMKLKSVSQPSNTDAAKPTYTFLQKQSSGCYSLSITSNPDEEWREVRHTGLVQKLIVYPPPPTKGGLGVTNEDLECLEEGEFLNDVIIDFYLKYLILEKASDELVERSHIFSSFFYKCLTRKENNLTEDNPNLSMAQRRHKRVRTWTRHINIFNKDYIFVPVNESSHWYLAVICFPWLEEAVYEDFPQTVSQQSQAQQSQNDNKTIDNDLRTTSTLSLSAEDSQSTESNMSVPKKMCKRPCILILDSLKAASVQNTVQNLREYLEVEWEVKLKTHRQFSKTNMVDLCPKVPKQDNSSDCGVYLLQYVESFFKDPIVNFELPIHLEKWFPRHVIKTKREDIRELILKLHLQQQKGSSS

[2] = target: T2, Sentrin-specific protease 8 (Homo sapiens, UniProt Q96LD8); format: functional;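 also: luminescence read-out of SENP8 inhibition, dose-response confirmation following an ultra-high-throughput screen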
T2 sequence (Q96LD8 whole entry): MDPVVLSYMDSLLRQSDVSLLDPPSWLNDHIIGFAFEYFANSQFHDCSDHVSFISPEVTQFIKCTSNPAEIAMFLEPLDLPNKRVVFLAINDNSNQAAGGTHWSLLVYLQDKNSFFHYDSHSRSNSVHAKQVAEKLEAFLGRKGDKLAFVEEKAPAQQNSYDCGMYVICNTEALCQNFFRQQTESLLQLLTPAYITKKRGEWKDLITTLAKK

[3] = target: Luciferin 4-monooxygenase (Photinus pyralis, UniProt P08659); test: Counter Screen for Luciferase-based Assay Positives. [Related pubchem assays: 620, 618, 411 ]
[4] = target: T3, Microphthalmia-associated transcription factor (Homo sapiens, UniProt O75030); test: reducers of TRPM1 reporter luminescence, concentration series – cell-based, SK-MEL-5, cherry-picked, set 3, MITF inhibitor project, dose response (AID 493073); format: functional;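 also: SK-MEL-5 melanoma cells with luciferase driven by the MITF target TRPM1 promoter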
T3 sequence (O75030 whole entry): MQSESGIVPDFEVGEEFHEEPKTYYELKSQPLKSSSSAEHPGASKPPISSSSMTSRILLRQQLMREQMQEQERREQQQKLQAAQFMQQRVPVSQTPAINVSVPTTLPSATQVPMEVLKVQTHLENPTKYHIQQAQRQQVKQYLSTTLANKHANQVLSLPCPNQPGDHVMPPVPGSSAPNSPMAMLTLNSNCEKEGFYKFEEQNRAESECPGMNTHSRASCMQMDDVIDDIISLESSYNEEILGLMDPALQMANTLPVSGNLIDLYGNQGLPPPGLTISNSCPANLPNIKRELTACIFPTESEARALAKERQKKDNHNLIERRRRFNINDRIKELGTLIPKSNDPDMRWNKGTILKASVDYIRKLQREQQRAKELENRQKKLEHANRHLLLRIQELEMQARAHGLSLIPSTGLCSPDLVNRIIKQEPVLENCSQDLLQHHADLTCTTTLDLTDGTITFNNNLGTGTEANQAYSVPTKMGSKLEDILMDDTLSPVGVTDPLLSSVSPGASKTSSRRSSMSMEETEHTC

[5] = target: T4, Replicative DNA helicase DnaB (Mycobacterium tuberculosis, UniProt P9WMR3); test: DnaB intein splicing inhibitors, dose response, biochemical, cell-free fluorescence (AID 449749); format: functional
T4 sequence (P9WMR3 whole entry): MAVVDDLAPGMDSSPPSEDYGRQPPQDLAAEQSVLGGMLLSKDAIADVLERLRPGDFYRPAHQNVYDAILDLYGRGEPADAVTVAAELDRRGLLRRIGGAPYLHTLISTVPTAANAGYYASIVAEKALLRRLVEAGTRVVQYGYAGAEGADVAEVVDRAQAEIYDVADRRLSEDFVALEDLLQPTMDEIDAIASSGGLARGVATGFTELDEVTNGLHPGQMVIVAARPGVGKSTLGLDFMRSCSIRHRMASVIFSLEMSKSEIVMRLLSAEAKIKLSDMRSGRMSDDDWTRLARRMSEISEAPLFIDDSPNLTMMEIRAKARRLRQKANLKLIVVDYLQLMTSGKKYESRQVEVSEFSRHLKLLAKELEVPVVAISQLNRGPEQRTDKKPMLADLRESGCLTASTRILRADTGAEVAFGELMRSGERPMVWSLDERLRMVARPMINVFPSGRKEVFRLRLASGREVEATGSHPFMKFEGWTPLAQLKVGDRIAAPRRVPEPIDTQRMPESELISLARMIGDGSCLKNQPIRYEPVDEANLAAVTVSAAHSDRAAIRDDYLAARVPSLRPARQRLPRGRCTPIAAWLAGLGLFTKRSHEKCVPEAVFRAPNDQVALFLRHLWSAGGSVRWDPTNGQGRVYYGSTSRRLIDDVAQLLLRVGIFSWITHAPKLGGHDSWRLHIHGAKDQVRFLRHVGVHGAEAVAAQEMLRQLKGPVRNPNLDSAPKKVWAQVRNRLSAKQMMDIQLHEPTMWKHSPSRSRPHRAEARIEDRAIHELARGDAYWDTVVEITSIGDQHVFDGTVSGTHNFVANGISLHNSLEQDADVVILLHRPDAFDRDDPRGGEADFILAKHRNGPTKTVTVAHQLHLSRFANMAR

[6] = target: T1, Sentrin-specific protease 7; test: inhibition of human SENP7 cleavage activity – biochemical, luminescence, SAR follow-up (AID 504497); format: functional

Luciferin 4-monooxygenase, sequence (P08659 whole entry): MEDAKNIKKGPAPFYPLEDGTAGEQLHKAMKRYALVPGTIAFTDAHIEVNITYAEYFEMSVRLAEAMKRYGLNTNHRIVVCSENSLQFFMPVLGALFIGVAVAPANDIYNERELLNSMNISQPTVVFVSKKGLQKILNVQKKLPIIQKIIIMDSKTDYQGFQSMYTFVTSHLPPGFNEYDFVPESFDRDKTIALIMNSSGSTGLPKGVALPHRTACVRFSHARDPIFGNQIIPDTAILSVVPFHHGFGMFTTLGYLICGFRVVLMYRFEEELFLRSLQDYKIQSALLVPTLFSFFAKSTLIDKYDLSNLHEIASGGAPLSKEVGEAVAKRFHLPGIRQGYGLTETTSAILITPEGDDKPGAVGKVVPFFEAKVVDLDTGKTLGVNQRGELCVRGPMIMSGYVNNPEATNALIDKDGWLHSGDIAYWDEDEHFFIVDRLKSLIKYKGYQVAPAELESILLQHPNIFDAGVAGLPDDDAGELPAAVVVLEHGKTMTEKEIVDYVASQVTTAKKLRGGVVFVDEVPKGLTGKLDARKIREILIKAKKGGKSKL

N#Cc1c(NC(=O)CSc2nc[nH]n2)sc2c1CCCCC2
IC50 [1]: 5.65 µM (active)
IC50 [2]: 4.66 µM (active)
EC50 [3]: 50.9 µM (active)
AC50 [4]: 0.371 µM (active)

COc1ccc(C(N)c2nccc3cc(OC)c(OC)cc23)cc1OC (stereo unspecified)
AC50 [5]: > 380 µM (inactive)
IC50 [6]: > 99 µM (inactive)
